According to patent publication US20170304329A1 (THE UNIVERSITY OF KANSAS, priority 2014, published 2017):
Counter-ions that a name gives are not always drawn. Like-named read-outs stand apart in the source and are kept apart here.

How the values were obtained:
Aqueous solubility = assay type: physicochemical
[1] = Study 10954: plasma CPX pharmacokinetics after IV CPX-POM and CPX-O; assay type: in vivo, male Sprague-Dawley rats; conditions: rats
From the text: (§1) Study 10954. Bioavailability of Ciclopirox Following Intravenous Administration of Ciclopirox-POM Prodrug in the Rat. […] Given the low oral bioavailability of CPX observed in the mouse following administration of CPX-O and CPX-POM, this route of administration was not investigated in this study.

[2] = mice
Description: The plasma and urine pharmacokinetics of ciclopirox (CPX) were characterized in the mouse following 10 mg/kg IV and 50 mg/kg IP administration of ciclopirox-POM prodrug (CPX-POM). […] In addition, we characterized the urinary excretion of CPX and ciclopirox glucuronide (CPX-G) to describe urinary tract exposure to CPX following IP administration of CPX-POM. Two treatment groups of 30 C57BL/6 mice each were treated with CPX-POM. Prior to and over six hours post-dose, three animals were sacrificed at each selected plasma sampling time point. Blood (plasma) was collected by cardiac puncture for bioanalysis. Plasma was pooled at each time point. In addition, two groups of six mice each were administered 10 mg/kg IV and 50 mg/kg IP CPX-POM to characterize urine pharmacokinetics. Mice were placed in metabolism cages with urine collected over 24 hours post-dose (0-8 hour and 8-24 hour urine collection intervals). As with plasma, urine samples collected from six animals were pooled for bioanalysis.

[3] = Study 10953: plasma CPX pharmacokinetics after IV CPX-POM and CPX-O; assay type: in vivo, male beagle dogs; conditions: dogs
Description: (§2) Study 10953. Bioavailability of Ciclopirox Following Intravenous Administration of Ciclopirox-POM Prodrug in the Dog. […] Given the low oral bioavailability of CPX observed in the mouse following administration of CPX-O and CPX-POM, this route of administration was not investigated in this study.
FIG. 14 illustrates the mean plasma CPX concentration-time profiles following administration of 3 mg/kg IV CPX-POM and CPX-O to four male beagle dogs.

[4] = test system: BBN induced bladder tumors; test: BBN induced bladder tumor model; assay type: in vivo, mouse
From the text: There were no significant differences in bladder weights between the two CPX-POM treatment groups. […] There is a strong correlation between CPX-POM treatment and tumor stage. […] Hematoxylin and Eosin stained bladder tissue sections of BBN alone group animals show a very high frequency of T3 stage tumors.

[5] = dogs; 3 mg/kg IV and 9 mg/kg SQ
T24 cells = test: Cell proliferation, hexosaminidase assay; assay type: cell-based, human; conditions: Homo sapiens, T-24, 48 h, 48 h
Description: (§3) To determine the effect of CPX on bladder cancer cell proliferation in T24 (MIBC) and 253-JBV (NMIBC) cells, 5,000 cells per well were seeded on to 96-well plates and grown overnight. The cells were then treated with increasing doses of CPX in RPMI media containing 10% FBS. Analysis of cell proliferation after the treatment period was estimated by the hexosaminidase assay. Briefly, the medium was removed and hexosaminidase substrate solution in citrate buffer pH 5 (7.5 mM), p-nitrophenol-N-acetyl-beta-D-glucosaminidase (Sigma Aldrich) was added at 75 μL per well. The plate was incubated at 37° C. in 100% humidity for 30 minutes. The reaction was stopped with 112.5 μL of 50 mM glycine containing 5 mM of EDTA (pH 10.4). The absorbance was measured at 405 nm. Experiments were conducted at n=6, and then repeated at least three times. The data were analyzed as percent of control, where the control wells were treated with equivalent amounts of DMSO alone. For IC50 calculations, a plot between the drug concentration and hexosaminidase activity was generated and the data was fitted either linearly or exponentially. The best fit was used for further processing of data.
(§4) We determined and compared the effect of CPX with CPX-POM and CPX-glucuronide in vitro by performing proliferation assay. To determine the effect of CPX, CPX-POM and CPX-glucuronide on bladder cancer cell proliferation in T24 (MIBC) and 253-JBV (NMIBC) cells, 5,000 cells per well were seeded on to 96-well plates and grown overnight. The cells were then treated with increasing doses of CPX, CPX-POM and CPX-glucuronide in RPMI media containing 10% FBS. Analysis of cell proliferation after the treatment period was estimated by the hexosaminidase assay. Briefly, the medium was removed and hexosaminidase substrate solution in citrate buffer pH 5 (7.5 mM), p-nitrophenol-N-acetyl-beta-D-glucosaminidase (Sigma Aldrich) was added at 75 μL per well. The plate was incubated at 37° C. in 100% humidity for 30 minutes. The reaction was stopped with 112.5 μL of 50 mM glycine containing 5 mM of EDTA (pH 10.4). The absorbance was measured at 405 nm.
(§5) Experiments were conducted at n=6, and then repeated at least three times. The data were analyzed as percent of control, where the control wells were treated with equivalent amounts of DMSO alone. For IC50 so calculations, a plot between the drug concentration and hexosaminidase activity was generated and the data was fitted either linearly or exponentially.

253JBV cells = test: Cell proliferation, hexosaminidase assay; assay type: cell-based, human; conditions: Homo sapiens, 48 h
Description: as §3, §4, §5

[6] = Study 10953: urine CPX pharmacokinetics after IV CPX-POM and CPX-O; assay type: in vivo, male beagle dogs; conditions: dogs; 3 mg/kg IV
From the text: as §2

[7] = Study 11206: urine CPX and CPX-G pharmacokinetics after single and repeated IP CPX-POM; assay type: in vivo, male C57/Bl6 mice; conditions: mice; IP 50, 100, and 200 mg/kg
Description: Urine ciclopirox (CPX) pharmacokinetics were characterized in mice following single (Day 1) and repeat (Day 10) dose (once daily for ten consecutive days) administration of 50, 100, and 200 mg/kg ciclopirox-POM prodrug (CPX-POM) to three separate groups of six mice each, are summarized in Table 3B below. […] Following single and repeat dose IP administration of 50, 100, and 200 mg/kg CPX-POM, less than 1% of the dose was excreted as CPX over 24 hours. Despite the low percent dose recovery as ciclopirox, however, urine CPX concentrations exceeded the in vitro IC50 value of 2 μM by several-fold across the entire dose range.

[8] = Study 10954: urine CPX and CPX-G pharmacokinetics after IV CPX-POM and CPX-O; assay type: in vivo, male Sprague-Dawley rats; conditions: rats; 10 mg/kg IV
From the text: as §1

[9] = Study 11428: plasma CPX pharmacokinetics after IV CPX-POM, SQ CPX-POM and oral CPX-O; assay type: in vivo, male Sprague-Dawley rats; conditions: rats; 20 mg/kg IV and 30 mg/kg SQ
From the text: (§6) Intravenous CPX-POM was used as the reference in characterizing the bioavailability of ciclopirox following SQ ciclopirox-POM prodrug in this specie.

[10] = test system: proliferating cell nuclear antigen (PCNA) in T24 cells; test: Western blot of PCNA; assay type: cell-based, human
From the text: CPX-POM inhibits proliferating cell nuclear antigen (PCNA) both in vitro and in vivo. […] Also, studies show a positive correlation between notch intracellular pathway and PCNA.

[11] = Study 11429: plasma CPX pharmacokinetics after IV CPX-POM, SQ CPX-POM and oral CPX-O; assay type: in vivo, male beagle dogs; conditions: dogs; 3 mg/kg IV and 9 mg/kg SQ
From the text: as §6

[12] = Study 208-02: plasma CPX pharmacokinetics after IV and oral CPX-O and CPX-POM; assay type: in vivo, male C57/Bl6 mice; conditions: mice; following oral and IV administration
From the text: Study 208-02. Bioavailability of Ciclopirox Following Oral and Intravenous Administration of Ciclopirox-POM Prodrug in the Mouse. […] The objectives of this study were to characterize the rate and extent of CPX-POM metabolism and assess the feasibility of orally administered ciclopirox-POM prodrug in support of future cancer proof of principle studies.

[13] = rats; 20 mg/kg IV and 30 mg/kg SQ
[14] = Series of pharmacokinetic studies (summary); conditions: following IV administration in mice, rats, and dogs

Cc1cc(C2CCCCC2)n(OCOP(=O)(O)O)c(=O)c1 [CPX-POM, phosphate disodium salt]
aqueous solubility (Aqueous solubility): improve the aqueous solubility of ciclopirox | CPX-POM in plasma ([1]; 10 mg/kg IV bolus): failed to detect CPX-POM in the majority of samples collected | Cmax relative to in vitro IC50 ([1]; 10 mg/kg IV, IC50 2 μM (414 ng/mL)): approximately twenty-fold greater than the IC50 | tolerability ([2]; 10 mg/kg IV and 50 mg/kg IP single doses): well tolerated | CPX Cmax relative to in vitro IC50 ([2]; 50 mg/kg IP, IC50 2 μM (414 ng/mL)): five-fold greater than the IC50 | CPX-POM in plasma (BQL) ([2]; following either treatment (10 mg/kg IV, 50 mg/kg IP)): < 25 ng/mL | CPX-POM in plasma ([3]; 3 mg/kg IV bolus): not detected in the majority of plasma samples assayed | mean Cmax relative to in vitro IC50 ([3]; 3 mg/kg IV, IC50 2 μM (414 ng/mL)): approximately seven-fold greater than the IC50 | tumor stage ([4]; H&E stained bladder tissue sections, vs BBN alone): significant reduction in the stage T3 frequency | Notch downstream target proteins ([4]; bladder tissue): significantly reduced the Notch downstream target proteins such as Cyclin D1 and c-Myc | Notch1 signaling and γ-secretase complex proteins in vivo ([4]; bladder tissue, both treatment groups): significantly reduced Notch1 activation | PCNA level in vivo ([4]; bladder tumor tissues): reduced the level of PCNA in vivo | bladder weights (measure of tumor volume) ([4]; four weeks once daily IP 100 mg/kg and 200 mg/kg, vs controls): significantly lower (p=0.013) | tolerability [5]: well tolerated | IC50 (T24 cells): ≥ 45 µM | IC50 (253JBV cells): 48 µM | CPX-POM in urine [6]: not detected in any urine sample | CPX-POM in urine [7]: not detected in any urine samples | CPX-POM in urine [8]: not detected in any urine samples collected | CPX-POM in blood or urine [9]: not detected in any blood or urine sample | PCNA level [10]: time dependent decrease in the level of PCNA | CPX-POM in blood or urine [11]: not detected in any blood or urine sample | prodrug in plasma [12]: not detected in plasma | tolerability [13]: well tolerated | prodrug in plasma and urine [14]: not detected in plasma nor urine
